Assay results reported in patent publication US20260226048A1, “MULTI-CYCLIC IRAK AND FLT3 INHIBITING COMPOUNDS AND USES THEREOF” (CHILDREN'S HOSPITAL MEDICAL CENTER, priority 2023, published 2026).
Like-named read-outs stand apart in the source and are kept apart here.

How the values were obtained:
[1] = target: T1, IRAK4 (Homo sapiens, UniProt Q9NWZ3); assay: RBC HotSpot Kinase Assay, IRAK4; format: biochemical; set-up: purchased Reaction Biology (RBC HotSpot); conditions: isolated kinase enzyme, 33P-ATP, P81 filter-binding
T1 sequence (Q9NWZ3 1-460): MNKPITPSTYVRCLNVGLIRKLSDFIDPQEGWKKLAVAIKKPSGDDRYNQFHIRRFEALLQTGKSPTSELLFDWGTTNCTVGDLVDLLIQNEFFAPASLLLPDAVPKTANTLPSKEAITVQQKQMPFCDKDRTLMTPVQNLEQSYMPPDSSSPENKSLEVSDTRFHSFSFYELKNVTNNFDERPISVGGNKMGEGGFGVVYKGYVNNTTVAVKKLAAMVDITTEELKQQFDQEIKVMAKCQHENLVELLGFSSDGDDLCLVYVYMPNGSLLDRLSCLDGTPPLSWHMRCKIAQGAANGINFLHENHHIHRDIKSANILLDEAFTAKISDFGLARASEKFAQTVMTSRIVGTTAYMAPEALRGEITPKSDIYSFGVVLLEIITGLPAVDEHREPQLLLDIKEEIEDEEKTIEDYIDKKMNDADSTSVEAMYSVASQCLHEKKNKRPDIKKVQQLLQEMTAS
In short: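 Radiometric filter-binding activity assay with isolated recombinant kinase (construct may be truncated or catalytic domain only) in 20 mM Hepes pH 7.5, 10 mM MgCl2, 1 mM EGTA, 2 mM DTT, 1% DMSO. Compound preincubated 20 min with kinase/substrate; reaction started with 33P-ATP, run 2 h at room temperature.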

[2] = target: T2, FLT3 (Homo sapiens, UniProt P36888); assay: RBC HotSpot Kinase Assay, FLT3; format: biochemical; set-up: purchased Reaction Biology (RBC HotSpot); conditions: isolated kinase enzyme, 33P-ATP, P81 filter-binding
T2 sequence (P36888 27-993): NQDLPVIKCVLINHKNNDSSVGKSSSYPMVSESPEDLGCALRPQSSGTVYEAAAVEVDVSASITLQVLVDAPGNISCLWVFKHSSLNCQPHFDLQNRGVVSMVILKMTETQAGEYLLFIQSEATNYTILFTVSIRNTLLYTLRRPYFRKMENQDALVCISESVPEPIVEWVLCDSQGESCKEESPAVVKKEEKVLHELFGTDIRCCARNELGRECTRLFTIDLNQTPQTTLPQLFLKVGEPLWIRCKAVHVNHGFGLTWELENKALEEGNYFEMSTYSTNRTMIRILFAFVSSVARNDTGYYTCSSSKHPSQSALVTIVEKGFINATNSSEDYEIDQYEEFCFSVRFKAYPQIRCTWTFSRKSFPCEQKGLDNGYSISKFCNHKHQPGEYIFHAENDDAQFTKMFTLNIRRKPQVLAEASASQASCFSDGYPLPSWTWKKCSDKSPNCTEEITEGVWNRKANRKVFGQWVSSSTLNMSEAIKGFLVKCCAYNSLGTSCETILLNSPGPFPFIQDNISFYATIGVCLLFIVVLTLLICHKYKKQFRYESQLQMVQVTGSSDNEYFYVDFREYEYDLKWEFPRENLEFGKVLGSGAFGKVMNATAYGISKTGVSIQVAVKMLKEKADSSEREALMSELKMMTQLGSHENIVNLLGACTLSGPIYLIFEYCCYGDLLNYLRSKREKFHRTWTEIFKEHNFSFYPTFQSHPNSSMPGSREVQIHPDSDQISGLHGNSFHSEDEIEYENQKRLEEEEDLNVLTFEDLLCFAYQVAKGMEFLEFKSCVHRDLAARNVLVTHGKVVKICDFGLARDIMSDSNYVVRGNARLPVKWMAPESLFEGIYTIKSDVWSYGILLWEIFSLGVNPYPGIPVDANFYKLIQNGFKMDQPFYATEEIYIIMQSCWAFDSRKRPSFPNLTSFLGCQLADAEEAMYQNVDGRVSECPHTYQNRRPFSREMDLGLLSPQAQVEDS
In short: (§1)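 Radiometric HotSpot assay of catalytic activity with isolated recombinant kinase, possibly truncated or kinase domain only. Buffer: 20 mM Hepes pH 7.5, 10 mM MgCl2, 1 mM EGTA, 0.01% Brij35, 0.02 mg/ml BSA, 0.1 mM Na3VO4, 2 mM DTT, 1% DMSO, with cofactors specific to each kinase.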

[3] = target: T3, IRAK1 (Homo sapiens, UniProt P51617); assay: RBC HotSpot Kinase Assay, IRAK1; format: biochemical; conditions: isolated kinase enzyme, 33P-ATP, P81 filter-binding
T3 construct: purchased Reaction Biology (RBC HotSpot)
T3 sequence (P51617 whole entry): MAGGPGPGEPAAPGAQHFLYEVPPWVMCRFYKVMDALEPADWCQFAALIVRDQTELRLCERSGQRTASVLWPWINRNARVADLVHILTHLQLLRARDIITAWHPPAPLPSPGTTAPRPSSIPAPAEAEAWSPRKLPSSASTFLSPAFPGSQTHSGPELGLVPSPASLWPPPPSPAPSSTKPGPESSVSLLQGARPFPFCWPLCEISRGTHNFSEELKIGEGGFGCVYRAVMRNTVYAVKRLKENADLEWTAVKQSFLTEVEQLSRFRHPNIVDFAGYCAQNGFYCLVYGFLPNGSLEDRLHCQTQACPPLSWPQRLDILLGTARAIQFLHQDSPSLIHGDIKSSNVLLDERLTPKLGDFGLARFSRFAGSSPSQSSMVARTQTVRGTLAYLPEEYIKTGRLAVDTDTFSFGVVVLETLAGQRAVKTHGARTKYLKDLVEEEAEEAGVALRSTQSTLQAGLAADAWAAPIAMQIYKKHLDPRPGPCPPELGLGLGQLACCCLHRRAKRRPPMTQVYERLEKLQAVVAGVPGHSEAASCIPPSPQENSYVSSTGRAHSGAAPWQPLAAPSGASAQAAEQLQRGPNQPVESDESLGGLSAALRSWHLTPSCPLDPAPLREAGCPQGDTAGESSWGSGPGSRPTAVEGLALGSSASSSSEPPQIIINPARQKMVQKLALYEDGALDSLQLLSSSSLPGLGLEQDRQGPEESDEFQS
In short: as §1

[4] = tested on: MOLM14 D835Y cells; assay: MOLM14 D835Y cell viability assay (Cell Titer Glo); format: cell-based; conditions: Homo sapiens, MOLM-14, 48 h, cell viability, Cell Titer Glo, 48 hours; read-out: MOLM14 D835Y IC50
In short: (§2)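 MOLM14 cells with FLT3 D835Y or F691L kinase-domain resistance mutations seeded at 1000 cells/well and exposed to compound for 48 h under standard incubator conditions. Viability read by CellTiter-Glo luminescence after 15 min at room temperature.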

[5] = tested on: NF-κB-inducible SEAP reporter in THP-1-Blue NF-κB cells; assay: NF-kB SEAP reporter assay in THP-1-Blue NF-κB cells; format: cell-based; conditions: 24 hours
Description: THP-1-Blue NF-κB cells (InvivoGen) carrying a stable integrated NF-κB-inducible secreted embryonic alkaline phosphatase (SEAP) reporter construct were plated at a concentration of 1×10^5 cells per well. The cells were stimulated with Pam3CSK4 (1 ng/mL) or hIL1B (1 ng/mL). After 10-20 minutes, the cells were then treated with vehicle (DMSO) or serial dilutions of the test compounds (10 doses tested for each test compound, with a 1:10 dilution series starting at 1 μM or 3 μM) with a final volume of 200 μL for 24 hours at 37° C. After 24 hours, the cells were centrifuged and 20 μL supernatant was incubated with 180 μL QUANTI-Blue reagent at 37° C. for 30-60 minutes. The levels of NF-κB-induced was measured in a microplate reader at 620 nm.

[6] = tested on: MOLM14 F691L cells; assay: MOLM14 F691L cell viability assay (Cell Titer Glo); format: cell-based; conditions: Homo sapiens, MOLM-14; cell viability, Cell Titer Glo, 48 hours; read-out: MOLM14 F691L IC50
In short: as §2

[7] = THP-1-Blue NF-κB cells stimulated with Pam3CSK4 (1 ng/mL), read-out: NF-κB Pam3SCK4 IC50
[8] = THP-1-Blue NF-κB cells stimulated with hIL1B (1 ng/mL), read-out: NF-κB IL1B IC50

Compound	IC50 [1] [nM]	IC50 [2] [nM]	IC50 [3] [nM]	IC50 [4] [nM]	IC50 [5, 7] [nM]	IC50 [5, 8] [nM]	IC50 [6] [nM]
CC(O)(c1ccc2ncc(-c3nc(N[C@@H]4CCCNC4)ncc3F)n2c1)C(F)(F)F (single isomer, unassigned) [Compound 37a]	2	< 0.5	2	32	70	58	
COc1cc2ncc(-c3nc(N[C@@H]4CCCNC4)ncc3F)n2nc1C1CC1 [Compound 3a, (R)-4-(6-cyclopropyl-7-methoxyimidazo[1,2-b]pyridazin-3-yl)-5-fluoro-N-(piperidin-3-yl)pyrimidin-2-amine]	< 0.5	< 0.5	2	1	40	58	5
F[C@H]1CCNC[C@@H]1Nc1cncc(-c2cnc3cc(OC4CC4)c(C4CC4)nn23)n1 [Compound 13a, 6-(7-cyclopropoxy-6-cyclopropylimidazo[1,2-b]pyridazin-3-yl)-N-((3S,4S)-4-fluoropiperidin-3-yl)pyrazin-2-amine]	5	< 0.5	55	115	512	334	
COc1cc2ncc(-c3ccnc(N[C@H]4CNCC[C@@H]4F)n3)n2nc1C1CC(F)(F)C1 [Compound 19a, 4-(6-(3,3-difluorocyclobutyl)-7-methoxyimidazo[1,2-b]pyridazin-3-yl)-N-((3S,4S)-4-fluoropiperidin-3-yl)pyrimidin-2-amine]	13	< 0.5	70	51	701	567	
COc1cc2ncc(-c3nc(N[C@@H]4CCCNC4)ncc3F)n2nc1C1CC(F)(F)C1 [Compound 51a, (R)-4-(6-(3,3-difluorocyclobutyl)-7-methoxyimidazo[1,2-b]pyridazin-3-yl)-5-fluoro-N-(piperidin-3-yl)pyrimidin-2-amine]	3	< 0.5	3	9	136	135	
COc1cc2ncc(-c3nc(N[C@@H]4CCCNC4)ncc3F)n2nc1C12CC(C1)C2 [Compound 68a, (R)-4-(6-(bicyclo[1.1.1]pentan-1-yl)-7-methoxyimidazo[1,2-b]pyridazin-3-yl)-5-fluoro-N-(piperidin-3-yl)pyrimidin-2-amine]	0.8	< 0.5	0.9	3	144	108	20
COc1cc2ncc(-c3nc(N[C@@H]4CCCNC4)ncc3F)n2nc1C1COC1 [Compound 94a, (R)-5-fluoro-4-(7-methoxy-6-(oxetan-3-yl)imidazo[1,2-b]pyridazin-3-yl)-N-(piperidin-3-yl)pyrimidin-2-amine]	4	< 0.5	28	6	188	206	40
COc1cc2ncc(-c3nc(N[C@H]4CNC[C@@H]4F)ncc3F)n2nc1N1CCOCC1 [Compound 119a, 5-fluoro-N-((3S,4S)-4-fluoropyrrolidin-3-yl)-4-(7-methoxy-6-morpholinoimidazo[1,2-b]pyridazin-3-yl)pyrimidin-2-amine]	< 0.5	< 0.5	1	4	57	69	45
COc1cc2ncc(-c3nc(N[C@@H]4CCCNC4)ncc3F)n2nc1N1CCOCC1 [Compound 120a, (R)-5-fluoro-4-(7-methoxy-6-morpholinoimidazo[1,2-b]pyridazin-3-yl)-N-(piperidin-3-yl)pyrimidin-2-amine]	10	< 0.5	10	5	339	217	45
COc1cc2ncc(-c3nc(N[C@H]4CNCC[C@@H]4F)ncc3F)n2nc1N1CCOCC1 [Compound 121a, 5-fluoro-N-((3S,4S)-4-fluoropiperidin-3-yl)-4-(7-methoxy-6-morpholinoimidazo[1,2-b]pyridazin-3-yl)pyrimidin-2-amine]	0.7	< 0.5	1	2	89	57	20
COc1cc2ncc(-c3nc(N[C@H]4CNCC[C@@H]4F)ncc3F)n2nc1N1CCS(=O)(=O)CC1 [Compound 122a, 4-(3-(5-fluoro-2-(((3S,4S)-4-fluoropiperidin-3-yl)amino)pyrimidin-4-yl)-7-methoxyimidazo[1,2-b]pyridazin-6-yl)thiomorpholine 1,1-dioxide]	18	< 0.5	22	11	407	407	127
COc1cc2ncc(-c3nc(N[C@H]4CNCC[C@@H]4F)ncc3F)n2nc1[C@H]1C[C@H](O)C1 [Compound 125a, (Trans)-3-(3-(5-fluoro-2-(((3S,4S)-4-fluoropiperidin-3-yl)amino)pyrimidin-4-yl)-7-methoxyimidazo[1,2-b]pyridazin-6-yl)cyclobutan-1-ol]	< 0.5	< 0.5	< 0.5	2	30	29	16
COc1cc2ncc(-c3nc(N[C@H]4CNCC[C@@H]4F)ncc3F)n2nc1[C@H]1C[C@@H](O)C1 [Compound 126a, Cis-3-(3-(5-fluoro-2-(((3S,4S)-4-fluoropiperidin-3-yl)amino)pyrimidin-4-yl)-7-methoxyimidazo[1,2-b]pyridazin-6-yl)cyclobutan-1-ol]	< 0.5	< 0.5	37	4	192	183	80
